Experimental data as given in ChEMBL document CHEMBL3870340, “Cytotoxic activity, apoptosis induction and structure-activity relationship of 8-OR-2-aryl-3,4-dihydroisoquinolin-2-ium salts as promising anticancer agents” (Bioorg Med Chem Lett, 2017).
pIC50: −log10 of the molar value.

How the values were obtained:
[1] = Antiproliferative activity against human NB4 cells at 5 uM after 48 hrs by MTT assay relative to control; assay type: functional; conditions: NB-4, 48 h, read-out: GI
[2] = Antiproliferative activity against human MKN45 cells at 20 uM after 48 hrs by MTT assay relative to control; assay type: functional; conditions: MKN-45, 48 h, read-out: GI
[3] = Cytotoxicity against human MKN45 cells assessed as decrease in cell viability after 48 hrs by MTT assay; assay type: functional, cell-based; conditions: MKN-45, 48 h
[4] = Cytotoxicity against human NB4 cells assessed as decrease in cell viability after 48 hrs by MTT assay; assay type: functional, cell-based; conditions: NB-4, 48 h
[5] = Cytotoxicity against primary porcine fetal kidney cells assessed as decrease in cell viability after 48 hrs by MTT assay; assay type: toxicity, cell-based; conditions: pig (Sus scrofa)
[6] = Cytotoxicity against primary goat fetal fibroblast assessed as decrease in cell viability after 48 hrs by MTT assay; assay type: toxicity; conditions: goat (Capra hircus), primary goat fetal fibroblasts

Row | SMILES | inhibition of growth at 5 µM [1] | inhibition of growth at 20 µM [2] | pIC50 [3] | pIC50 [4] | IC50 at 48 h [5] | IC50 at 48 h [6]
1 | CCOc1cccc2c1C=[N+](c1ccccc1I)CC2 | 49.7% | 82.2% | – | – | – | –
2 | COc1cccc2c1C=[N+](c1ccc(I)cc1F)CC2 | 54.8% | 89% | 5.10 | 5.44 | – | –
3 | COc1cccc2c1C=[N+](c1ccc(Br)cc1F)CC2 | 56.9% | 69.2% | 5.16 | 5.44 | – | –
4 | COc1cccc2c1C=[N+](c1cccc(Br)c1)CC2 | 46.6% | 87.4% | 4.98 | 5.34 | – | –
5 | COc1cccc2c1C=[N+](c1ccc(F)cc1)CC2 | 40.2% | 53% | 4.68 | 4.62 | – | –
6 | COc1cccc2c1C=[N+](c1ccccc1[N+](=O)[O-])CC2 | 10.5% | 3% | – | – | – | –
7 | COc1cccc2c1C=[N+](c1ccccc1C)CC2 | 3.4% | 30.5% | – | – | – | –
8 | COc1cccc2c1C=[N+](c1ccc(Cl)cc1)CC2 | 23.1% | 12.3% | – | – | – | –
9 | COc1cccc2c1C=[N+](c1ccc(Br)cc1)CC2 | 59.4% | 96.8% | 4.96 | 5.21 | – | –
10 | CC(=O)Oc1cccc2c1C=[N+](c1ccccc1I)CC2 | 15% | 3.4% | – | – | – | –
11 | Oc1cccc2c1C=[N+](c1ccccc1I)CC2 | 22.9% | 30.9% | – | – | – | –
12 | COc1ccc([N+]2=Cc3c(cccc3OC)CC2)cc1 | 6.6% | 0.7% | – | – | – | –
13 | COc1cccc2c1C=[N+](c1ccc(C#N)cc1)CC2 | 36.4% | 81.2% | 5.45 | 5.46 | – | –
14 | C[n+]1cc2c3c(ccc2c2ccc4cc5c(cc4c21)OCO5)OCO3 [SANGUINARIUM] | 88.5% | 92.3% | 5.82 | 6.28 | – | –
15 | COc1cccc2c1C=[N+](c1ccccc1F)CC2 | 42% | 67.5% | 5.18 | 5.34 | – | –
16 | COc1cccc2c1C=[N+](c1cccc(C)c1)CC2 | 3.1% | 79.6% | 5.07 | – | – | –
17 | COc1cccc2c1C=[N+](c1cccc(C(F)(F)F)c1)CC2 | 47.9% | 78.3% | 5.69 | 5.02 | – | –
18 | COc1cccc2c1C=[N+](c1cc(Cl)cc(Cl)c1)CC2 | 55.8% | 86.4% | 5.44 | 5.58 | – | –
19 | COc1cccc2c1C=[N+](c1cccc([N+](=O)[O-])c1)CC2 | 40.3% | 67.1% | 4.86 | 5.55 | – | –
20 | COc1ccc2c(c[n+](C)c3c4cc5c(cc4ccc23)OCO5)c1OC [CHELERYTHRINE] | 88.4% | 92.7% | 4.90 | 5.83 | – | –
21 | COc1cccc2c1C=[N+](c1ccccc1)CC2 | 20.5% | 14.4% | – | – | – | –

Row | SMILES | inhibition of growth at 5 µM [1] | inhibition of growth at 20 µM [2] | pIC50 [3] | pIC50 [4] | IC50 at 48 h [5] | IC50 at 48 h [6]
22 | COc1cccc2c1C=[N+](c1ccccc1Cl)CC2 | 47.6% | 84% | 5.14 | 5.03 | – | –
23 | COc1cccc2c1C=[N+](c1cccc(O)c1)CC2 | 24.2% | 24.5% | – | – | – | –
24 | COc1cccc2c1C=[N+](c1ccc(C(F)(F)F)cc1)CC2 | 53.3% | 83.4% | 5.15 | 5.59 | – | –
25 | COc1cccc2c1C=[N+](c1cccc(I)c1)CC2 | 45.3% | 73% | 4.94 | 5.78 | 4.57 µM | 2.67 µM
26 | COc1cccc2c1C=[N+](c1ccccc1C(F)(F)F)CC2 | 59.3% | 85% | 5.53 | 5.51 | – | –
27 | Ic1ccccc1[N+]1=Cc2c(cccc2OCc2ccccc2)CC1 | 78.2% | 91.5% | 5.70 | 5.58 | – | –
28 | COc1cccc2c1C=[N+](c1cccc(Cl)c1)CC2 | 35.1% | 73.3% | 5.00 | 4.65 | – | –
29 | COc1cccc2c1C=[N+](c1ccccc1Br)CC2 | 48.6% | 86.8% | 5.16 | 5.28 | – | –
30 | COc1cccc2c1C=[N+](c1ccc(I)cc1)CC2 | 51.8% | 71.1% | 5.37 | 5.07 | – | –
31 | COc1cccc2c1C=[N+](c1ccc(C)cc1)CC2 | 17.7% | 4.7% | – | – | – | –
32 | COc1cccc2c1C=[N+](c1ccccc1O)CC2 | 0.6% | 8.4% | – | – | – | –
33 | COc1cccc2c1C=[N+](c1ccc(Br)cc1Br)CC2 | 61.4% | 51.9% | 5.34 | 5.61 | – | –
34 | COc1cccc2c1C=[N+](c1ccccc1C#N)CC2 | 30.4% | 51.1% | 5.34 | 5.16 | – | –
35 | COc1cccc2c1C=[N+](c1cccc(C#N)c1)CC2 | 39.6% | 83.4% | 5.15 | 5.44 | – | –
36 | COc1cccc2c1C=[N+](c1ccc(Cl)cc1Cl)CC2 | 54.7% | 88.2% | 5.45 | 5.70 | – | –
37 | COc1cccc2c1C=[N+](c1c(F)cccc1F)CC2 | 48.9% | 80.5% | 5.07 | 5.41 | – | –
38 | COc1cccc2c1C=[N+](c1cccc(F)c1)CC2 | 37.6% | 80.6% | 4.95 | 4.73 | – | –
39 | COc1ccccc1[N+]1=Cc2c(cccc2OC)CC1 | 2.1% | 15% | – | – | – | –
40 | COc1cccc2c1C=[N+](c1ccc(O)cc1)CC2 | 4.7% | 5.4% | – | – | – | –
41 | COc1cccc([N+]2=Cc3c(cccc3OC)CC2)c1 | 22.8% | 66.2% | 4.82 | 4.64 | – | –
